Source: patent US20040049072A1, “RXR modulators with improved pharmacologic profile” (priority 1999, published 2004)
“Also recorded” adds a separate entry of the source.

target: T1, RXRα homodimer (RXR:RXR) (Homo sapiens, UniProt P19793); experiment: RXR homodimer co-transfection assay in CV-1 cells; format: cell-based; conditions: Table 3 c2; mean of n > 3
T1 sequence (P19793 1-462): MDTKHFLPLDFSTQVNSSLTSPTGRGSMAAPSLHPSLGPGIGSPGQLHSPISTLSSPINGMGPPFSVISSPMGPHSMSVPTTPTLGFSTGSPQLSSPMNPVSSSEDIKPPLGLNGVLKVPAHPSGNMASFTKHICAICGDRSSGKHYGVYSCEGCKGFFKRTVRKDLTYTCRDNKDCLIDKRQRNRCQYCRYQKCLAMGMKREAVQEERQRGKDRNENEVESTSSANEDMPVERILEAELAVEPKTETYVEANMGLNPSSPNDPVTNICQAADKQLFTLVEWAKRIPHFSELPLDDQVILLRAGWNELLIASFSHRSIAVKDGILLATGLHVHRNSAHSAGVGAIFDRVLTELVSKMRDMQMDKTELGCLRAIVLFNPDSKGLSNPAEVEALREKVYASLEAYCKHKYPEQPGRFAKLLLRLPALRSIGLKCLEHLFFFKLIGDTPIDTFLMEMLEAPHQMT
Excerpt: In the co-transfection assay, cloned cDNA for one or more IRs (e.g., human RARα, RXRα, or PPARγ), alone or in combination (i.e. for heterodimer assays) under the control of a constitutive promoter (e.g., the SV 40, RSV or CMV promoter) is introduced by transfection (a procedure to introduce exogenous genes into cells) into a background cell substantially devoid of endogenous IRs. These introduced gene(s) direct the recipient cells to make the IR protein(s) of interest. A further gene is also introduced (co-transfected) into the same cells in conjunction with the IR gene(s). This further gene, comprising the cDNA for a reporter protein, such as firefly luciferase (LUC), controlled by an appropriate hormone responsive promoter containing a hormone response element (HRE). This reporter plasmid functions as a reporter for the transcriptional-modulating activity of the target IR(s). Thus, the reporter acts as a surrogate for the products (mRNA then protein) normally expressed by a gene under control of the target receptor(s) and their native hormone(s).
Exposing the transfected cells to an agonist ligand compound increases reporter activity in the transfected cells. This activity can be conveniently measured, e.g., by increasing luciferase production and enzymatic activity, which reflects compound-dependent, IR-mediated increases in reporter transcription. […] Increasing concentrations of an antagonist will decrease the reporter signal (e.g., luciferase production). The co-transfection assay is therefore useful to detect both agonists and antagonists of specific IRs. Furthermore, it determines not only whether a compound interacts with a particular IR, but whether this interaction mimics (agonizes) or blocks (antagonizes) the effects of native or synthetic regulatory molecules on target gene expression, as well as the specificity and strength of this interaction.
The receptor expression plasmid was cotransfected along with a reporter plasmid at 50 ng/well, the internal control plasmid pRS-β-Gal at 50 ng/well and filler DNA, pGEM, at 90 ng/well.
Six hours after transfection, media was removed and the cells were washed with phosphate-buffered saline (PBS). Media containing compounds of the present invention in concentrations ranging from 10^−10 to 10^−5 M were added to the cells. […] Retinoids were dissolved in dimethylsulfoxide for use in the transcriptional activation assays. Two to three replicates were used for each sample. Transfections and subsequent procedures were performed on a Biomek 1000 automated workstation.
After 40 hours, the cells were washed with PBS, lysed with a detergent-based buffer and assayed for LUC and β-Gal activities using a luminometer or spectrophotometer, respectively. For each replicate, the normalized response (NR) was calculated as: […]
The mean and standard error of the mean (SEM) of the NR were calculated. Data were plotted as the response of the compound compared to the reference compounds over the range of the dose-response curve. […] Antagonist activity was determined by testing the amount of LUC expression in the presence of the RXR agonists described above at the EC50 concentration for such known compounds. […] In addition, the efficacy of antagonists was determined as a function (%) of maximal inhibition.

SMILES	RXRα Homodimer Cotransfection Assay Agonist Efficacy (%)
CCCCOc1c(/C(C)=C/C=C/C(C)=C/C(=O)O)cc(C(C)(C)C)cc1C(C)(C)C [Compound L4]	1%
CCCCCCCOc1c(/C(C)=C/C=C/C(C)=C/C(=O)O)cc(C(C)(C)C)cc1C(C)(C)C [Compound L5]	0%

same assay, conditions: Table 3 c4; in presence of 3.2×10^−8 M LGD1069

SMILES	RXRα Homodimer Cotransfection Assay Agonist Efficacy (%)
CCCCOc1c(/C(C)=C/C=C/C(C)=C/C(=O)O)cc(C(C)(C)C)cc1C(C)(C)C [Compound L4]	92%
CCCCCCCOc1c(/C(C)=C/C=C/C(C)=C/C(=O)O)cc(C(C)(C)C)cc1C(C)(C)C [Compound L5]	94%

same assay, conditions: cotransfection assay

SMILES	activity on the RXR:RXR homodimer
CCCCOc1c(/C(C)=C/C=C/C(C)=C/C(=O)O)cc(C(C)(C)C)cc1C(C)(C)C [Compound L4]	highly efficacious and potent antagonist activity with little or no agonist activity
CCCCCCCOc1c(/C(C)=C/C=C/C(C)=C/C(=O)O)cc(C(C)(C)C)cc1C(C)(C)C [Compound L5]	full antagonists; also recorded: highly efficacious and potent antagonist activity with little or no agonist activity

same assay, conditions: in presence of LGD1069; not calculated if efficacy <10%; read-out: RXRα Homodimer Cotransfection Assay Antagonist IC50

SMILES	IC50
CCCCOc1c(/C(C)=C/C=C/C(C)=C/C(=O)O)cc(C(C)(C)C)cc1C(C)(C)C [Compound L4]	9 nM
CCCCCCCOc1c(/C(C)=C/C=C/C(C)=C/C(=O)O)cc(C(C)(C)C)cc1C(C)(C)C [Compound L5]	10 nM

same assay, conditions: maximal repression (100%) in presence of 32 nM LGD1069

SMILES	RXR:RXR CV-1 (%) Antag.
CCCCOc1c(/C(C)=C/C=C/C(C)=C/C(=O)O)cc(C(C)(C)C)cc1C(C)(C)C [Compound L4]	92%
CCCCCCCOc1c(/C(C)=C/C=C/C(C)=C/C(=O)O)cc(C(C)(C)C)cc1C(C)(C)C [Compound L5]	94%

same assay, conditions: maximal response relative to ATRA

SMILES	RXR:RXR CV-1 (%) Ag.
CCCCOc1c(/C(C)=C/C=C/C(C)=C/C(=O)O)cc(C(C)(C)C)cc1C(C)(C)C [Compound L4]	1%
CCCCCCCOc1c(/C(C)=C/C=C/C(C)=C/C(=O)O)cc(C(C)(C)C)cc1C(C)(C)C [Compound L5]	0%

test system: db/db mouse; experiment: db/db mouse study (rodent model of Type II diabetes); conditions: plasma glucose, % correction relative to lean values, day 14; 100 mg/kg daily oral gavage

SMILES	db/db mouse Glu. (D 14)
CCCCOc1c(/C(C)=C/C=C/C(C)=C/C(=O)O)cc(C(C)(C)C)cc1C(C)(C)C [Compound L4]	50%
CCCCCCCOc1c(/C(C)=C/C=C/C(C)=C/C(=O)O)cc(C(C)(C)C)cc1C(C)(C)C [Compound L5]	0%

same assay, conditions: plasma triglycerides, % correction relative to lean values, day 14; NC = no change

SMILES	db/db mouse Trigs. (D 14)
CCCCOc1c(/C(C)=C/C=C/C(C)=C/C(=O)O)cc(C(C)(C)C)cc1C(C)(C)C [Compound L4]	105%

same assay, conditions: rodent models of Type II Diabetes

effect on triglycerides	SMILES	effect on the thyroid hormone axis	insulin sensitizing activity with thyroid axis suppression and triglyceride elevations	insulin sensitizing activity / effect on glucose
	CCCCOc1c(/C(C)=C/C=C/C(C)=C/C(=O)O)cc(C(C)(C)C)cc1C(C)(C)C [Compound L4]	absence of detectable suppression of the thyroid hormone axis	maintain the desirable insulin sensitizing activity and eliminate or reduce both the suppression of the thyroid axis and triglyceride elevations; also recorded: maintain the desirable insulin sensitizing activity and minimize both the suppression of the thyroid axis and triglyceride elevations	
no effect	CCCCCCCOc1c(/C(C)=C/C=C/C(C)=C/C(=O)O)cc(C(C)(C)C)cc1C(C)(C)C [Compound L5]	no effect		no effect

target: T2, RXRα:RAR heterodimer (Homo sapiens, UniProt P19793); experiment: RXR:RAR heterodimer co-transfection assay in CV-1 cells; format: cell-based; conditions: CV-1, read-out: RXR:RAR CV-1 (%) Ag.
T2 construct: expressed in transfected cells; host or cells: CV-1 cells
T2 sequence (P19793 1-462): T1 sequence (P19793 1-462)
Method: For determination of agonist activity in the context of the RXR:RAR heterodimer or the RXR:PPARγ heterodimer, media containing compounds of the present invention in concentrations ranging from 10^−10 to 10^−5 M were added to the cells.
Compounds of the present invention were also tested for the ability to synergize with a PPARγ agonist in the context of an RXR heterodimer. […] Efficacy of the compounds of the present invention in the agonist and synergy assays was calculated as the maximum response obtained over the range of the dose response curve relative to the maximum response obtained by the reference agonist. Antagonist efficacy was determined as a function (%) of maximal inhibition.
However, when RAR is occupied, typical RXR agonists activate the heterodimer. […] To examine the effects of the compounds of the present invention on the transcriptional properties of the RXR:RAR heterodimer, a heterodimer cotransfection assay as described above was employed.

SMILES	Emax
CCCCOc1c(/C(C)=C/C=C/C(C)=C/C(=O)O)cc(C(C)(C)C)cc1C(C)(C)C [Compound L4]	2%

same assay, conditions: CV-1, read-out: RXRα:RAR Heterodimer Cotransfection Assay Agonist Efficacy (%)

SMILES	Emax
CCCCOc1c(/C(C)=C/C=C/C(C)=C/C(=O)O)cc(C(C)(C)C)cc1C(C)(C)C [Compound L4]	2%

same assay, conditions: CV-1; read-out: RXR:RAR CV-1 (%) Ag.

Emax	SMILES
5%	CCCCCCCOc1c(/C(C)=C/C=C/C(C)=C/C(=O)O)cc(C(C)(C)C)cc1C(C)(C)C [Compound L5]

same assay, conditions: CV-1; read-out: RXRα:RAR Heterodimer Cotransfection Assay Agonist Efficacy (%)

Emax	SMILES
5%	CCCCCCCOc1c(/C(C)=C/C=C/C(C)=C/C(=O)O)cc(C(C)(C)C)cc1C(C)(C)C [Compound L5]

same assay, conditions: antagonist assay

SMILES	antagonist activity on the RXR:RAR heterodimer
CCCCOc1c(/C(C)=C/C=C/C(C)=C/C(=O)O)cc(C(C)(C)C)cc1C(C)(C)C [Compound L4]	significant RXR:RAR antagonist activity
CCCCCCCOc1c(/C(C)=C/C=C/C(C)=C/C(=O)O)cc(C(C)(C)C)cc1C(C)(C)C [Compound L5]	significant RXR:RAR antagonist activity

same assay, conditions: compound alone

SMILES	agonist activity on the RXR:RAR heterodimer
CCCCOc1c(/C(C)=C/C=C/C(C)=C/C(=O)O)cc(C(C)(C)C)cc1C(C)(C)C [Compound L4]	not active as RXR:RAR agonists
CCCCCCCOc1c(/C(C)=C/C=C/C(C)=C/C(=O)O)cc(C(C)(C)C)cc1C(C)(C)C [Compound L5]	not active as RXR:RAR agonists

same assay, conditions: maximal repression (100%) in presence of 10 nM TTNPB

SMILES	RXR:RAR CV-1 (%) Antag.
CCCCOc1c(/C(C)=C/C=C/C(C)=C/C(=O)O)cc(C(C)(C)C)cc1C(C)(C)C [Compound L4]	88%
CCCCCCCOc1c(/C(C)=C/C=C/C(C)=C/C(=O)O)cc(C(C)(C)C)cc1C(C)(C)C [Compound L5]	68%

same assay, conditions: relative to maximal repression (100%) in presence of 10 nM TTNPB

SMILES	RXRα:RAR Heterodimer Cotransfection Assay Antagonist Efficacy (%)
CCCCOc1c(/C(C)=C/C=C/C(C)=C/C(=O)O)cc(C(C)(C)C)cc1C(C)(C)C [Compound L4]	88%
CCCCCCCOc1c(/C(C)=C/C=C/C(C)=C/C(=O)O)cc(C(C)(C)C)cc1C(C)(C)C [Compound L5]	68%

target: T3, RXRα (Homo sapiens, UniProt P19793); experiment: RXRα binding (competition with tritiated LGD1069); conditions: Table 3; mean of n > 3; read-out: RXRα Binding Ki
T3 sequence (P19793 1-462): T1 sequence (P19793 1-462)
Method: Non-specific binding was defined as that binding remaining in the presence of 500 nM of the appropriate unlabelled compound. At the end of the incubation period, bound ligand was separated from free. The amount of bound tritiated retinoid was determined by liquid scintillation counting of an aliquot (700 μL) of the supernatant fluid or the hydroxylapatite pellet.
After correcting for non-specific binding, IC50 values were determined. […] The IC50 value was determined graphically from a log-logit plot of the data. The Ki values were determined by application of the Cheng-Prussof equation to the IC50 values, the labeled ligand concentration and the Kd of the labeled ligand.

SMILES	Ki
CCCCOc1c(/C(C)=C/C=C/C(C)=C/C(=O)O)cc(C(C)(C)C)cc1C(C)(C)C [Compound L4]	0.9 nM
CCCCCCCOc1c(/C(C)=C/C=C/C(C)=C/C(=O)O)cc(C(C)(C)C)cc1C(C)(C)C [Compound L5]	0.6 nM

same assay, conditions: from IC50 by Cheng-Prussof equation, tritiated LGD1069; read-out: Bind RXRα Ki

SMILES	Ki
CCCCOc1c(/C(C)=C/C=C/C(C)=C/C(=O)O)cc(C(C)(C)C)cc1C(C)(C)C [Compound L4]	1 nM
CCCCCCCOc1c(/C(C)=C/C=C/C(C)=C/C(=O)O)cc(C(C)(C)C)cc1C(C)(C)C [Compound L5]	0.6 nM
